In series [1] the test system is Hepatitis B virus. Briefly: Antiviral activity against Hepatitis B virus infected human HepG2.2.15 cells assessed as HBsAg secretion at 100 […] after 9 days by ELISA. In kind it is functional. The note with it: HepG2 2.2.15, 216 h. Background: ELISA stands for enzyme-linked immunosorbent assay.
Series [2] has as its system Hepatitis B virus. Briefly: Antiviral activity against Hepatitis B virus infected human HepG2.2.15 cells assessed as HBsAg secretion at 25 […] after 9 days by ELISA. Format: functional. The settings on record: HepG2 2.2.15, 216 h.
Series [3] relates to Hepatitis B virus. Kind of series: Antiviral activity against Hepatitis B virus infected human HepG2.2.15 cells assessed as HBsAg secretion at 50 […] after 9 days by ELISA. In kind it is functional. The settings on record: HepG2 2.2.15, 216 h.
In series [4] the test system is Hepatitis B virus. Briefly: Antiviral activity against Hepatitis B virus infected human HepG2.2.15 cells assessed as HBeAg secretion at 100 […] after 9 days by ELISA. In kind it is functional. The note with it: HepG2 2.2.15, 216 h.
The subject of series [5] is Hepatitis B virus. Kind of series: Antiviral activity against Hepatitis B virus infected human HepG2.2.15 cells assessed as HBeAg secretion at 50 […] after 9 days by ELISA. In kind it is functional. The settings on record: HepG2 2.2.15, 216 h.
In series [6] the test system is Hepatitis B virus. Kind of series: Antiviral activity against Hepatitis B virus infected human HepG2.2.15 cells assessed as HBeAg secretion at 25 […] after 9 days by ELISA. The note with it: HepG2 2.2.15, 216 h. In kind it is functional.
Series [7] in a line: Cytotoxicity against human HepG2(2.2.15) cells at 200 ug/mL by MTT assay. In kind it is cell-based. The settings on record: read-out: GI. In general terms: Tetrazolium assays rely on reduction of a dye to a coloured formazan, in cell work by metabolically active cells.
A short description of series [8]: Cytotoxicity against human HepG2(2.2.15) cells at 100 ug/mL by MTT assay. The settings on record: read-out: GI. In kind it is cell-based.
Series [9] can be described thus: Cytotoxicity against human HepG2(2.2.15) cells at 50 ug/mL by MTT assay. The note with it: read-out: GI. In kind it is cell-based.
Series [10] concerns Hepatitis B virus. Briefly: Antiviral activity against Hepatitis B virus infected human HepG2.2.15 cells assessed as HBsAg secretion at 200 […] after 9 days by ELISA. Format: functional. The settings on record: HepG2 2.2.15, 216 h.
In series [11] the test system is Hepatitis B virus. Kind of series: Antiviral activity against Hepatitis B virus infected human HepG2.2.15 cells assessed as HBeAg secretion at 200 […] after 9 days by ELISA. Format: functional. The note with it: HepG2 2.2.15, 216 h.

Inhibition in vivo and inhibition data for eleven molecules are collected here from ChEMBL document CHEMBL1155330, “Schisanwilsonins A-G and related anti-HBV lignans from the fruits of Schisandra wilsoniana” (Bioorg Med Chem Lett, 2009).

By inhibition in vivo is commonly meant how much of the control response was suppressed.

As for `COc1cc2c(c(OC)c1OC)-c1c(cc3c(c1O)OCO3)C[C@H](C)[C@@](C)(O)[C@H]2OC(=O)C(C)C` [SCHISANWILSONIN E], the results for the inhibition in vivo at 0.1 mg/kg in [1] and in series [4] were 0% and 2%, respectively. Further, the inhibition in vivo at 0.025 mg/kg in [2] and in series [6] was 0% each time. Also, the inhibition in vivo at 0.05 mg/kg in series [3] and in [5] was 0% in each case. Further, the inhibition at 200 ug/mL in series [7] was at least 25%.

Turning to `COc1cc2c(c(O)c1OC)-c1c(cc(OC)c(OC)c1OC)C[C@@H](C)[C@@H](C)C2` [SCHISANHENOL], the figures for the inhibition in vivo at 0.025 mg/kg in series [2] and in series [6] were 45% and 0%, respectively. Besides, the inhibition at 200 ug/mL in [7] was at least 25%. The inhibition at 100 ug/mL in series [8] was at least 25%. The inhibition at 50 ug/mL in series [9] was at least 25%.

Regarding `COc1cc2c(c(OC)c1OC)-c1c(cc3c(c1O)OCO3)C[C@H](C)[C@@](C)(O)[C@H]2OC(=O)c1ccccc1` [SCHISANWILSONIN C], the inhibition in vivo at 0.025 mg/kg in series [2] came out at 0%; in series [6] it was 11.6%. The inhibition in vivo at 0.05 mg/kg was found to be 0% in [3] and 11.7% in series [5]. Moreover, the inhibition at 200 ug/mL in [7] was at least 25%. Further, in series [8], the inhibition at 100 ug/mL was at least 25%.

For the molecule `Nc1ccn([C@@H]2CS[C@H](CO)O2)c(=O)n1` [LAMIVUDINE], the inhibition in vivo at 0.2 mg/kg in series [10] worked out at 28.6%; in series [11], 34.5%.

Take `C/C=C(\C)C(=O)O[C@H]1c2cc(OC)c(OC)c(OC)c2-c2c(cc(O)c(OC)c2O)C[C@H](C)[C@@]1(C)O` [SCHISANWILSONIN D]: the inhibition in vivo at 0.1 mg/kg in [1] was 28.8%; in series [4], 21.6%. Besides, the inhibition in vivo at 0.025 mg/kg in [2] amounted to 12.5%; in series [6], 6.2%. In addition, the inhibition in vivo at 0.05 mg/kg in series [3] was 19.5%; in series [5] it was 16.5%. For the same molecule, the inhibition at 200 ug/mL in series [7] is at least 25%.

Take `COc1cc2c(c(OC)c1OC)-c1c(cc(O)c(OC)c1O)C[C@H](C)[C@@](C)(O)[C@H]2OC(=O)c1ccccc1` [SCHISANWILSONIN G]: the inhibition in vivo at 0.2 mg/kg in series [10] was 0%; in series [11], 5.6%. Besides, the inhibition in vivo at 0.1 mg/kg in [1] was determined as 0%; in [4], 3.4%. Moreover, the inhibition in vivo at 0.025 mg/kg in series [2] and in series [6] was 0% each time. For the same molecule, the values for the inhibition in vivo at 0.05 mg/kg in [3] and in [5] were 0% and 1.6%, respectively.

Take `COc1cc2c(c(O)c1OC)-c1c(cc(OC)c(OC)c1OC)C[C@](C)(O)[C@@H](C)C2` [GOMISIN H]: the inhibition in vivo at 0.2 mg/kg in series [10] was 11.6%; in series [11], 1.6%. Also, the results for the inhibition in vivo at 0.1 mg/kg in series [1] and in series [4] were 3.7% and 0%, respectively. For the same molecule, the inhibition in vivo at 0.025 mg/kg in [2] and in [6] was 0% throughout. Also, the inhibition in vivo at 0.05 mg/kg in series [3] and in series [5] was 0% throughout.

Consider `C/C=C(/C)C(=O)O[C@H]1c2cc(OC)c(OC)c(OC)c2-c2c(cc3c(c2O)OCO3)C[C@H](C)[C@@]1(C)O` [SCHISANWILSONIN A], for which the inhibition in vivo at 0.025 mg/kg in [2] and in series [6] was 0% in each case. The values for the inhibition in vivo at 0.05 mg/kg in [3] and in series [5] were 5.3% and 14%, respectively. Further, in series [7], the inhibition at 200 ug/mL is at least 25%. In addition, the inhibition at 100 ug/mL in series [8] is at least 25%.

Regarding `COc1cc2c(c(OC)c1OC)-c1c(cc3c(c1O)OCO3)C[C@H](C)[C@@](C)(O)[C@H]2OC(C)=O` [SCHISANWILSONIN F], the values for the inhibition in vivo at 0.1 mg/kg in [1] and in series [4] were 0% and 9.3%, respectively. Besides, the inhibition in vivo at 0.025 mg/kg in series [2] came to 0%; in series [6], 5.5%. Besides, the inhibition in vivo at 0.05 mg/kg worked out at 0% in [3] and 6.7% in series [5]. For the same molecule, the inhibition at 200 ug/mL in series [7] is at least 25%.

For the molecule `COc1cc2c(c(OC)c1OC)-c1c(cc(OC)c(OC)c1OC)C[C@H](C)[C@H](C)C2` [SCHISANDRIN A], the inhibition in vivo at 0.2 mg/kg in series [10] is 50.3%; in series [11], 15.9%. Besides, the inhibition in vivo at 0.1 mg/kg in series [1] was determined as 30.9%; in [4], 11.9%. Moreover, the inhibition in vivo at 0.025 mg/kg in series [2] and in series [6] was 0% each time. Also, the inhibition in vivo at 0.05 mg/kg worked out at 8.8% in series [3] and 0% in series [5].

In the case of `C/C=C(\C)C(=O)O[C@H]1c2cc(OC)c(OC)c(OC)c2-c2c(cc3c(c2O)OCO3)C[C@H](C)[C@@]1(C)O` [SCHISANWILSONIN B], the values for the inhibition in vivo at 0.1 mg/kg in series [1] and in series [4] were 7.4% and 18.1%, respectively. For the same molecule, the inhibition in vivo at 0.025 mg/kg in series [2] was 0%; in series [6], 0.6%. For the same molecule, the values for the inhibition in vivo at 0.05 mg/kg in series [3] and in series [5] were 0% and 9.2%, respectively. The inhibition at 200 ug/mL in series [7] is at least 25%.
